Test results from PubChem BioAssay (NCI).
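Growth conditions: 96-well plates. Treatment: test compound, 48 hours, 5 concentrations. Analysis: linear interpolation between bracketing concentrations; unreached endpoints set to highest concentration. At the GI50, growth is halved. TGI marks complete inhibition of growth.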

What was measured:
Assay in all cases: inhibition of tumour cell growth, NCI panel, 48 h
M14 melanoma = system: M14 melanoma
TK-10 renal = system: TK-10 renal
SW-620 colon = system: SW-620 colon
UO-31 renal = system: UO-31 renal
IGROV1 ovarian = system: IGROV1 ovarian
ACHN renal = system: ACHN renal
HT29 colon = system: HT29 colon
MOLT-4 leukemia = system: MOLT-4 leukemia
HOP-92 NSCLC = system: HOP-92 NSCLC
RXF 393 renal = system: RXF 393 renal

Row | Compound | TGI (M14 melanoma) [µM] | TGI (TK-10 renal) [µM] | TGI (SW-620 colon) [µM] | TGI (UO-31 renal) [µM] | TGI (IGROV1 ovarian) [µM] | TGI (ACHN renal) [µM] | TGI (HT29 colon) [µM] | TGI (MOLT-4 leukemia) [µM] | TGI (HOP-92 NSCLC) [µM] | TGI (RXF 393 renal) [µM] | GI50 (M14 melanoma) [µM] | GI50 (TK-10 renal) [µM] | GI50 (SW-620 colon) [µM] | GI50 (UO-31 renal) [µM] | GI50 (IGROV1 ovarian) [µM] | GI50 (ACHN renal) [µM] | GI50 (HT29 colon) [µM] | GI50 (MOLT-4 leukemia) [µM] | GI50 (HOP-92 NSCLC) [µM] | GI50 (RXF 393 renal) [µM]
1 | CCOC(=O)CC1(C(=O)OCC)c2[nH]c3ccccc3c2CCN1Cc1ccccc1 (stereo not given) | 35.8 | > 100 | > 100 | 64.1 | 52.9 | 50.9 | 29.8 | 49.1 | 32.2 | 32.7 |  |  |  |  |  |  |  |  |  | 
2 | NP(=O)(Oc1c2occc2cc2ccc(=O)oc12)N(CCCl)CCCl (stereo not given) | > 100 | > 100 | > 100 | > 100 | > 100 | > 100 | > 100 | > 100 | > 100 | > 100 |  |  |  |  |  |  |  |  |  | 
3 | Clc1ccc(C2=Nn3c(COc4ccccc4Cl)nnc3SC2)c(Cl)c1 | 41.4 | 95.4 | > 100 | > 100 | > 100 | 51.6 | 27 | > 100 | > 100 | > 100 | 16.4 | 26.5 | 18.5 | 31.2 | 33.6 | 17.3 | 14 | 22.3 | 39 | 28.6
4 | COc1ccccc1CCc1cc(OC)c(OC)c(OC)c1 | > 100 | > 100 | > 100 | 61.3 | > 100 | > 100 | > 100 | 59.9 | > 100 | 57.7 |  |  |  |  |  |  |  |  |  | 
5 | CC(C)(C)c1ccc2c(c1)S(=O)(=O)Nc1ccccc1NS(=O)(=O)c1cc(C(C)(C)C)ccc1OCCOCCOCCO2 | > 100 | > 100 | > 100 | > 100 | > 100 | > 100 | > 100 | > 100 | > 100 | > 100 |  |  |  |  |  |  |  |  |  | 
6 | C1=CC2SSSC2C1 (stereo not given) | > 100 | > 100 | > 100 | > 100 | > 100 | > 100 | > 100 | > 100 | > 100 | > 100 |  |  |  |  |  |  |  |  |  | 
7 | OC[C@H]1CCCC1O (stereo not given in full) | > 100 | > 100 | > 100 | > 100 | > 100 | > 100 | > 100 | > 100 | > 100 | > 100 |  |  |  |  |  |  |  |  |  | 
8 | N=C1C(c2nc3ccccc3s2)=C(O)CN1c1cc(C(F)(F)F)ccc1Cl | 11.1 | > 100 | > 100 | 6.18 | > 100 | > 100 | > 100 | > 100 | 98.1 | > 100 | 3.21 | 52.1 | 36.4 | 2.63 | 9.64 | 21.2 | 25.8 | 16.3 | 7.69 | 18
9 | COC1=C(C)C(=O)c2c(c(COC(N)=O)c3n2CC2C3N2C)C1=O (stereo not given) | 0.0641 | 0.0542 | 0.145 | 0.232 | 0.351 | < 0.0139 | 0.314 | 0.104 | 0.453 | 0.0671 |  |  |  |  |  |  |  |  |  | 
10 | Cc1ccc(C(=O)CN(/C=C/C(=O)C(F)(F)F)c2ccc(S(N)(=O)=O)cc2)cc1 | > 100 | > 100 | > 100 | > 100 | > 100 | > 100 | > 100 | > 100 | > 100 | > 100 | > 100 | 44.5 | > 100 | > 100 | > 100 | > 100 | > 100 | 44 | 99.7 | > 100
11 | CCOC(=O)c1c(C)n(Cc2ccc(Cl)cc2Cl)c2c1c(CN(C)C)c(O)c1[nH]cnc12 | 43.9 | 39.1 | 34.3 | 36.5 | 31.5 | 28.7 | 31.8 | 4.52 | 13.3 | 28.7 | 24.2 | 22.7 | 20.1 | 18.9 | 17.1 | 15.4 | 18 | 0.908 | 2.74 | 14.7
